The text below walks through data of ChEMBL document CHEMBL5241088, “Selective SIRT2 inhibitors as promising anticancer therapeutics: An update from 2016 to 2020” (Eur J Med Chem, 2021).

The target in assay [1] is T1, NAD-dependent protein deacetylase sirtuin-2 (Homo sapiens, UniProt Q8IXJ6).
T1 sequence (Q8IXJ6 whole entry): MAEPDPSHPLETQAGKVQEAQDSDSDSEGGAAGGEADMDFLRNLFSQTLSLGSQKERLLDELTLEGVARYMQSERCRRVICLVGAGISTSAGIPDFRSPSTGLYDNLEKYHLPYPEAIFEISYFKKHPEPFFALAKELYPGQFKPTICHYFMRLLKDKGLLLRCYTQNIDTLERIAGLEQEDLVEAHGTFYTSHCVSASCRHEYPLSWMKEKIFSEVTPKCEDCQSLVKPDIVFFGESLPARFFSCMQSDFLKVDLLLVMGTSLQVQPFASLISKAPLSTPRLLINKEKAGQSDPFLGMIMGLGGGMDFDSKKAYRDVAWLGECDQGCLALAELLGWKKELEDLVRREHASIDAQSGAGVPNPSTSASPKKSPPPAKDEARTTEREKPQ
Description: Inhibition of SIRT2 (unknown origin).

Assay [2] has as its target T1, NAD-dependent protein deacetylase sirtuin-2. Description: Inhibition of human SIRT2 using sirtuin substrate incubated for 30 mins by enzymatic fluorescence assay.
Assay [3] concerns MCF7. Description: Antiproliferative activity against human MCF7 cells. The assay is classed as functional, cell-based.
The subject of assay [4] is HEK-293T. Description: Antiproliferative activity against human HEK293T cells. In kind it is functional, cell-based.
The target of assay [5] is T1, NAD-dependent protein deacetylase sirtuin-2. In words: Inhibition of human SIRT2 deacetylase activity using QPKKac as substrate.
The target is the same in assay [6]. Description: Inhibition of recombinant SIRT2 (unknown origin) using (FAM)-labeled fluorescent peptide-RHKK(Ac)LM by electrophoretic mobility shift assay. On the technique in general: In EMSA bound probe runs differently from free probe, usually more slowly.
Assay [7] shares this target. Description: Inhibition of human GST-fused SIRT2 expressed in Escherichia coli BL21(DE3).
Assay [8] has as its system MDA-MB-231. In words: Antiproliferative activity against human MDA-MB-231 cells incubated for 72 hrs by MTT assay. In kind it is functional.
The test system of assay [9] is MCF7. Description: Antiproliferative activity against human MCF7 cells incubated for 72 hrs by MTT assay. In kind it is functional. Background: Tetrazolium assays rely on reduction of a dye to a coloured formazan, in cell work by metabolically active cells.
Assay [10] deals with T1, NAD-dependent protein deacetylase sirtuin-2. Description: Inhibition of human SIRT2 expressed in Escherichia coli BL21(DE3) using Ac-Arg-His-Lys-[Lys-(Ac)]-AMC substrate.
Assay [11] has the same target. In words: Inhibition of human SIRT2 using Ac-peptide as substrate assessed as fluorescence intensity by microplate reader.
Assay [12] deals with T2, NAD-dependent protein deacetylase sirtuin-2 (Homo sapiens) (UniProt Q8IXJ6).
T2 sequence (whole entry): T1 sequence (Q8IXJ6 whole entry)
Description: Inhibition of human SIRT2 (34 to 356 amino acids) by surface plasmon resonance assay relative to control. Particulars: concentration not given here. On the technique in general: SPR reads the build-up and loss of mass on a sensor chip optically.

Assay [13] relates to Raji. Description: Cytotoxicity against human Raji cells assessed as cell viability after 72 hrs by CellTiter-Glo assay. The assay is classed as functional, cell-based.
Assay [14] in a line: Cytotoxicity against human DLBCL cells assessed as cell viability after 72 hrs by CellTiter-Glo assay. In kind it is functional, cell-based.
For assay [15], the target named is T1, NAD-dependent protein deacetylase sirtuin-2. Description: Inhibition of human SIRT2 demyristoylation activity using ETDKac as substrate.
For assay [16], the system named is MDA-MB-231. In words: Cytotoxicity against human MDA-MB-231 cells assessed as cell viability measured after 3 days by Cell Titer Blue assay. Particulars: MDA-MB-231, 72 h. In kind it is functional, cell-based.
In assay [17] the test system is MDA-MB-468. Description: Cytotoxicity against human MDA-MB-468 cells assessed as cell viability measured after 3 days by Cell Titer Blue assay. The assay is classed as functional, cell-based. Particulars: MDA-MB-468, 72 h.
The subject of assay [18] is MCF7. Description: Cytotoxicity against human MCF7 cells assessed as cell viability measured after 3 days by Cell Titer Blue assay. In kind it is functional, cell-based. Particulars: MCF7, 72 h.

Structures are written as SMILES. pIC50: −log10 of the molar value.

Turning to `Cc1[nH]c2c(c1C(=O)N(C)Cc1cccc(-c3ccc(C(F)(F)F)cc3)c1)C(=O)CC(C)(C)C2`, the pIC50 (usually the IC50 on a negative log10 scale, so that one unit is a factor of ten) in [1] is 6.01. In turn, `CC(C)=CCc1c(O)cc2oc3cc(O)c(O)c(CC=C(C)C)c3c(=O)c2c1O` gave a pIC50 in [2] of 5.42. Same read-out and setting: then `COc1c(O)cc2oc3cc(O)c(CC=C(C)C)c(O)c3c(=O)c2c1CC=C(C)C` [MANGOSTIN], with 5.04. In the case of `CCCCCCCCCCCCCC(=S)NCCCC[C@H](NS(C)(=O)=O)C(=O)N[C@H](C)C(=O)N[C@@H](CCCNC(=N)N)C(N)=O`, the results for the pIC50 in [3], in [4] and in [5] were 6.30, 7.00 and 7.15, respectively.

Regarding `C=CCNC(=S)N/N=C/c1ccc(OC)c(Cn2cc([N+](=O)[O-])cn2)c1`, the pIC50 in assay [6] was 6.74. With `COc1cc2oc3cc(O)c(OC)c(CC=C(C)C)c3c(=O)c2c(O)c1CC=C(C)C`, in [2], the pIC50 was 4.72. With `CCC(C)(C)c1ccc(OCC(O)CN2C[C@@H]3C[C@H](C2)c2cccc(=O)n2C3)c(C(C)(C)CC)c1` (stereo partly drawn), the pIC50 in assay [7] was 6.34.

For `C[C@H](NC(=O)[C@H](CCCCNC(=S)CNC(=O)c1ccccc1Nc1cccc(OCCc2ccccc2)c1)NC(=O)OCc1ccccc1)C(N)=O`, the GI50 in assay [8] and in assay [9] was 8300 nM in each case. For the same compound, the pIC50 in assay [1] is 5.81. In turn, `COc1ccc2cc(S(=O)(=O)Cc3ccc(OC(C)=O)cc3)oc2c1` had a pIC50 in assay [10] of 5.42. `O=C(CSc1nnc2c3ccccc3n(Cc3ccccc3)c2n1)Nc1cccc2ccccc12`: in assay [11], the pIC50 was 5.89. On to `CCOC(=O)c1c(/C=N/OCc2cn(CC(=O)c3ccc(OC)cc3)nn2)c2ccccc2n1C`, for which the inhibition – broadly, the share of the control response that was lost under treatment – in [12] came out at 73.1%.

On to `CNC(=O)C(Cc1c(O)ccc2cc(Br)ccc12)C(=O)c1ccc(Br)cc1` (stereo not drawn), for which the values for the pIC50 in assay [13] and in assay [14] were 5.04 and 5.24, respectively.

Regarding `CCCCCCCCCCCCCC(=S)NCCCC[C@H](NS(C)(=O)=O)C(=O)N[C@@H](C)C(=O)N[C@@H](CCCNC(=N)N)C(N)=O`, the pIC50 in assay [15] was 7.05; in assay [3], 7.30; in assay [4], 8.00. For `CCCCCCCCCCCCCC(=S)NCCCCC(NC(=O)OCc1ccccc1)C(=O)Nc1ccccc1` (stereo not drawn), the pIC50 in assay [16] is 4.47; in assay [17], 5.07; in assay [18], 5.08.
